These results are taken from US5814627A, “3, 5-disubstituted and 3, 4, 5-trisubstituted 2-isoxazolines and isoxazoles, process for their preparation and their use as pharmaceuticals” (Hoechst Aktienegesellschaft, priority 1994, dated 1998).

The test system of assay [1] is PAF-induced asthma attack. The assay can be described thus: Test 7: antiasthmatic effect, PAF-induced asthma attack. Format: in vivo. The following applies: Cavia porcellus; i.d., 15 minutes before PAF; guinea pig. As for the experimental part: Test 7: Testing for antiasthmatic effect
Anesthetized guinea pigs, which were cannulated in the jugular vein to allow injection of the PAF, were used for testing for antiasthmatic effect. The test preparations were also administered intravenously (i.v.), 5 min before PAF administration, into the blood stream through the same venous cannula, or else administered intraduodenally (i.d.), 15 minutes before the PAF, through an opening in the duodenum which had been installed and cannulated surgically. The bronchial width was recorded in an overflow pneumonogram before and after administering the preparation. Evaluation: ED50 in mg/kg i.d. as compared with the PAF-induced asthma attack.

Assay [2] concerns tumor cell line 20-10-5S (hybridoma cell line). The experiment in a line: Test 8: Inhibition of tumor cell proliferation. The settings on record: 48 h + 16 h tritiated thymidine incorporation; 20-10-5S cells. The assay is classed as cell-based.
A further assay deals with adjuvant/arthritis model. The assay can be described thus: Test 6: antiarthritic effect in the adjuvant/arthritis model. Format: in vivo, rat (Wistar-Lewis). The settings on record: Rattus norvegicus, po, 408 h, daily for 17 days, rat, read-out: Test 6 Paw volume (% inhibition); for inhibition in vivo at 25 mg/kg: 25 mg/kg orally; for inhibition in vivo at 50 mg/kg: 50 mg/kg orally.

Assay [3] concerns cyclooxygenase-dependent thrombocyte aggregation. The experiment in a line: Test 5: Cyclooxygenase-dependent thrombocyte aggregation. The following applies: Homo sapiens, arachidonic acid as inducer, read-out: Test 5 residual activity (cyclooxygenase-dependent thrombocyte aggregation), percent of control. The assay is classed as cell-based, human. As to the method:
TEST 5. Cyclooxygenase-dependent thrombocyte aggregation
Platelet-rich plasma (PRP): to inhibit coagulation, human blood was treated with 1/10 of its volume of 3.8% sodium citrate solution. Centrifugation then takes place at 105×g for 20 minutes and the supernatant (PRP) is removed. 200 μl of PRP were preincubated, at 37° C. for 10 minutes, together with 30 μl of test substance in a PAP4 aggregometer (BioData). The test substance was dissolved in organic solvent and diluted 1:30 with buffer (50 mM TisHCl, pH 8.0; 90 mM NaCl). Aggregation is triggered with 20 μl of inducer. During the aggregation, stirring takes place at 800 rpm. Arachidonic acid, 5 mg/ml, was used as the inducer.
(§1) The values in the table show the concentration of the test substance which was employed in μM and, besides this, the residual activity measured in percent based on the control, which was set to be 100%. The interleukin is additionally indicated in test 4.

The test system of assay [4] is leukotriene B4 synthesis in white blood cells. The experiment in a line: Test 3: LTB4 formation by white blood cells. Format: cell-based. The settings on record: Homo sapiens; 10 μM; read-out: Test 3 residual activity (LTB4 formation), percent of control. As to the method: TEST 3. LTB4 formation by white blood cells
Isolation of white blood cells:
40 ml of human blood were mixed with 8 ml of 6% dextran solution (dextran, mw: 480,000 in PM16). After one hour at room temperature, the supernatant,which was composed of white blood cells, was removed, diluted with an equal volume of PM16, and centrifuged for 15 minutes at 300×g (1600 rpm). The sediment was next resuspended in approximately 5-6 ml of PM16 and, once the cell count had been determined in a Coulter Counter, adjusted to 10^7 cells/ml.
The test mixture comprised 0.24 ml of cell suspension, 0.03 ml of 20 mM CaCl2 /5 mM MgCl2 and 5 μl of test substance. Following 15 minutes of preincubation at 37° C., the reaction was started with 0.03 ml of A23187/glutathione (100 μg of A23187/ml; 15.4 μg of glutathione/ml). The incubation was terminated after 5 minutes at 37° C. by immediate cooling of the samples down to 0° C. After centrifuging for 2 minutes in an Eppendorff Centrifuge (0° C.), the supernatant was removed and examined chromatographically.
High pressure liquid chromatography (HPLC): the HPLC equipment comprises a Kratos pump (Spectro-flow 400), a cooled automatic BT 7041 sample injector (Biotronik) having a 75 μl sample loop, a Nucleosil C18 column (100*3 mm, 5 μm particles of Chrompack), a UV detector (Kratos) Spectroflow 757 (wavelength: 280 nm, measurement range: 0.1 AUFS, time constant: 0.5 s) and a Spectra Physics integrator (SP 4270). The eluent (725 ml of methanol, 275 ml of water and 0.1 ml of acetic acid) was supplied at a flow rate of 0.7 ml/minute and at a pressure of about 100 bar.
When doing this, the measurement range which has been set can be examined and altered if necessary. It is also vital to measure the test substances at the particular test concentration (e.g.: 10^-5 M) in PM16 before the cell incubation, since the test substances might conceal the LTB4 peak. If this is the case, a lower concentration must be selected.
as §1

The subject of assay [5] is polymorphonuclear leucocytes (PMNL). The assay can be described thus: Test 1: Release of proteolytic activity from human PMNL. The assay is classed as cell-based. The following applies: Homo sapiens, PMNL, read-out: Test 1 residual activity (release of proteolytic activity), percent of control. As for the experimental part: Isolation of polymorphonuclear leucocytes (PMNL) from human peripheral blood for carrying out tests 1 and 2 10 ml of human blood were diluted with 10 ml of HBSS (Serva) and underlaid with 15 ml of Lymphoprep (Dr. Molter GmbH, Heidelberg). […] A white ring, composed of mononuclear cells, is located between these two phases. The lowermost phase is composed of erythrocytes which are covered with a white layer of PMNL. The uppermost phase, and also the Lymphoprep and the white ring, were carefully removed using a syringe. The remaining sediment was carefully resuspended in 15 ml of 3% dextran in PM16 (mw: 485,000, Sigma, Deisenhofen). The suspension was then left to stand at room temperature for one hour. During this time, the erythrocytes sedimented while the PMNL remained in the supernatant. The supernatant was removed, diluted with an approximately equal volume of PM16, and centrifuged for 15 minutes at 400×g. Should the PMNL sediment be heavily contaminated with erythrocytes, it is necessary to carry out a hypotonic lysis. To do this, the sediment was resuspended in 750 μl of water. After exactly 15 seconds, the suspension was diluted with approximately 7 ml of PM16 and centrifuged for 10 minutes at 400×g. If necessary, this lysis was repeated once more. Otherwise, the PMNL sediment was resuspended in a suitable medium. 250 μl of PMNL (5·10^6 cells/ml of PBS containing 7.5 mM glucose) were incubated at 37° C. for 20 minutes with 1 μl of test substance. 1 μl of cytochalasin B (5 μg/ml of test mixture) was then added and the mixture was incubated at 37° C. for a further 5 minutes. Following the addition of 1 μl of […] necrosis factor alpha (TNF; 30 ng/ml of test mixture), the incubation was continued for 5 minutes. The release was started using 1 μl of fMLP (10 nmol/l of test mixture). After 60 minutes at 37° C., the reaction was terminated by cooling the samples down to 0° C. The samples were then centrifuged, and the supernatant was removed and frozen down. Cytochalasin B and fMLP were dissolved in DMSO and TNF was diluted with buffer. 50 μl of the supernatant were mixed with 175 μl of buffer (100 mM HEPES, pH 7.5; 500 mM NaCl) in a 96-well microtiter plate. Following the addition of 25 μl of substrate (methoxysuccinyl-[…]-nitroanilide), the extinction of each well was measured at 405 nm after 0, 5, 10, 15, 30 and 60 minutes. […] The interleukin is additionally indicated in test 4.

Molecules are shown by their SMILES. Where a name gives a salt, the structure may show the parent alone. Some results are limits rather than exact numbers.

Protocol for adjuvant/arthritis model: Male rats of a Wistar-Lewis strain (Mollegaard/Denmark) were used as experimental animals. The body weight is between 160 and 200 g. Subplantar injection of 0.1 ml of Freund's adjuvant (=6 mg of Mycobacterium butyricum suspension, Difco Lab./Detroit, Mich. USA, per ml of heavy white paraffin oil, Merck, Darmstadt) into the root of the tail resulted, on the 10th to 14th day of the experiment, in immunopathological processes and chronic inflammations, particularly in the form of arthritic and periarthritic symptoms, at other sites in the body (secondary lesions). The animals were fed ad libitum with the standard feed Altromin-R, from Altrogge, Lage, and provided with tap water. The animals were given 60 mg of codein per kg as an analgesic from the 14th day to the end of the experiment. The test substances were administered orally as a CMC suspension, in an injection volume of 1 ml/100 g of body weight, on each day (in all for 17 days), beginning on the day of the adjuvant administration. The volumes of each of the hind paws, and the body weight, were measured on the first and on the 18th day of the experiment. Diminution in the increase of paw volume, as compared with the untreated control group, served as the criterion of activity, with the two hind paws being averaged.

`C[C@H](O)[C@@H]1CC(c2cc(C(C)(C)C)c(O)c(C(C)(C)C)c2)=NO1` (relative stereo) [Example 20] came in with an ED50 in assay [1] of about 50 mg/kg. Moreover, the IC50 in assay [2] was under 5 µM. The inhibition in vivo at 25 mg/kg in the assay on adjuvant/arthritis model was determined as 67%. The activity at 10 µM in assay [3] was determined as 100%.

Turning to `CCOC(=O)CNC(=O)NCc1cc(-c2cc(C(C)(C)C)c(O)c(C(C)(C)C)c2)no1` [Example 54, Ethyl (3-(3-(4-hydroxy-3,5-di-tert-butylphenyl)isoxazol-5-ylmethyl)ureido) acetate], the ED50 in assay [1] was in the range of 1 to 3 mg/kg. Also, the IC50 in assay [2] was 5 to 10 µM.

Consider `CC(C)(OCc1cc(-c2cc(C(C)(C)C)c(O)c(C(C)(C)C)c2)no1)C(=O)O` [Example 36, 2-(3-(4-Hydroxy-3,5-di-tert-butylphenyl)isoxazol-5-ylmethoxy)-2-methylpropionic acid], for which the activity at 10 µM in assay [4] was 93%. In assay [3], the activity at 100 µM was 87%.

For the molecule `COP(=O)(O)C1CC(c2cc(C(C)(C)C)c(O)c(C(C)(C)C)c2)=NO1` (stereo not drawn) [Example 7, Monomethyl 3-(4-hydroxy-3,5-di-tert-butylphenyl)-2-isoxazolin-5-ylphosphonate], the ED50 in assay [1] was 10 to 30 mg/kg. In addition, in assay [3], the activity at 100 µM came out at 95%.

As for `COP(=O)(OC)C1CC(c2cc(C(C)(C)C)c(O)c(C(C)(C)C)c2)=NO1` (stereo not drawn) [Example 5], the median effective dose (ED50) in assay [1] is under 10 mg/kg. The activity at 100 µM in assay [3] was 98%.

Take `CC(C)(C)c1cc(C2CC(c3ccncc3)=NO2)cc(C(C)(C)C)c1O` (stereo not drawn) [Example 60, 3-(4-Pyridyl)-5-(4-hydroxy-3,5-di-tert-butylphenyl)-2-isoxazoline]: in assay [4], the activity at 10 µM turned out to be 88%.

The molecule `CC(C)(C)c1cc(C2=NOC(P(=O)(O)O)C2)cc(C(C)(C)C)c1O` (stereo not drawn) [Example 6, 3-(4-Hydroxy-3,5-di-tert-butylphenyl)-2-isoxazolin-5-ylphosphonic acid] showed an ED50 in assay [1] of about 50 mg/kg.

On to `CC(C)(C)c1cc(-c2cc(COC(=O)NCC(=O)O)on2)cc(C(C)(C)C)c1O` [Example 40, N-(3-(4-Hydroxy-3,5-di-tert-butylphenyl)isoxazol-5-ylmethoxycarbonyl)glycine], for which the ED50 in assay [1] fell in the range of 1 to 3 mg/kg. The IC50 in assay [2] is under 5 µM.

With `CC(OC(=O)[C@@H](N)Cc1ccccc1)c1cc(-c2cc(C(C)(C)C)c(O)c(C(C)(C)C)c2)no1` (single isomer, unassigned) [Example 71, L-Phenylalanine-1-(3-(4-hydroxy-3,5-di-tert-butylphenyl)isoxazol-5-yl)ethylester hydrochloride], the IC50 in assay [2] was 5 to 10 µM. Further, in the assay on adjuvant/arthritis model, the inhibition in vivo at 25 mg/kg was 66%. The activity at 1 µM in assay [5] (1 μM) was 79%. Also, in assay [5], the activity at 10 µM turned out to be 42%. For the same molecule, the activity at 25 µM in assay [3] was found to be 97%.

On to `CC(C)(C)c1cc(-c2cc(CNC(=O)NCC(=O)O)on2)cc(C(C)(C)C)c1O` [Example 56, (3-(3-(4-Hydroxy-3,5-di-tert-butylphenyl)isoxazol-5-ylmethyl)ureido)acetic acid], for which the 50% effective dose (ED50) in assay [1] was about 50 mg/kg.

Regarding `Cc1cc(CNC(=O)C2(C)CC(c3cc(C(C)(C)C)c(O)c(C(C)(C)C)c3)=NO2)cc(C)c1O` (stereo not drawn) [Example 14], the ED50 in assay [1] was in the range of 10 to 50 mg/kg. Moreover, in assay [3], the activity at 10 µM was 100%.

On to `CC(C)(C)c1cc(-c2cc(CCOC(=O)NCC(=O)O)on2)cc(C(C)(C)C)c1O` [Example 43, N-(2-(4-Hydroxy-3,5-di-tert-butylphenyl)isoxazol-5-ylethoxycarbonyl)glycine], for which the activity at 10 µM in assay [4] is 93%. For the same molecule, in assay [3], the activity at 100 µM is 99%.

In the case of `C/C(O)=C(\C#N)C(=O)NCc1cc(-c2cc(C(C)(C)C)c(O)c(C(C)(C)C)c2)no1` [Example 53, 2-Cyano-3-hydroxybut-2-enecarboxylic acid(3-(4-hydroxy-3,5-di-tert-butylphenyl)isoxazol-5-ylmethyl)amide], the ED50 in assay [1] lay within 10 to 50 mg/kg. The IC50 in assay [2] fell in the range of 8 to 10 µM. Further, in the assay on adjuvant/arthritis model, the inhibition in vivo at 25 mg/kg stood at 48%.

Regarding `CC(OC(=O)CN)c1cc(-c2cc(C(C)(C)C)c(O)c(C(C)(C)C)c2)no1` (stereo not drawn) [Example 76, Glycine-1-(3-(4-hydroxy-3,5-di-tert-butylphenyl)isoxazol-5-yl)ethyl ester hydrochloride], the IC50 in assay [2] is 20 µM. Moreover, in the assay on adjuvant/arthritis model, the inhibition in vivo at 50 mg/kg worked out at 70%. Also, the activity at 10 µM in assay [5] was determined as 68%. The activity at 100 µM in assay [5] (100 μM) came to 9%. Moreover, the activity at 25 µM in assay [3] was determined as 99%.

The molecule `Cc1oncc1C(=O)NCc1cc(-c2cc(C(C)(C)C)c(O)c(C(C)(C)C)c2)no1` [Example 52] yielded an ED50 in assay [1] of 3 to 10 mg/kg. For the same molecule, in assay [2], the half-maximal inhibitory concentration (IC50) is under 5 µM.

On to `CC(C)(C)c1cc(-c2cc(CN)on2)cc(C(C)(C)C)c1O` [Example 48], for which the ED50 in assay [1] lay within 10 to 50 mg/kg. The IC50 in assay [2] fell in the range of 5 to 10 µM. Further, the inhibition in vivo at 50 mg/kg in the assay with adjuvant/arthritis model was determined as 60%.
